Data: ChEMBL document CHEMBL4831493 (Eur J Med Chem, 2021)
Values belong to the molecule of their own block, whether it stands above or below them. Active and inactive are the calls of the source. The calls are words filed in the database; no cut-off is given here.

Assays:
[1] = target: Glycogen synthase kinase-3 beta (Homo sapiens, UniProt P49841); assay: Inhibition of human recombinant N-terminal His-tagged GSK3beta expressed in Escherichia coli using RRRPASVPPSPSLS RHS(pS)HQRR as substrate incubated for 30 mins in presence of ATP by Kinase-Glo reagent based luminescence assay
Mus musculus [2] = assay: Improvement in learning and spatial memory in amyloid beta (1 to 42)-induced mouse model of Alzheimer's disease assessed as increase in spontaneous alteration at 10 mg/kg/day, po pretreated with amyloid beta42 for 3 days followed by treatment with compound and measured after 9 days measured by Y-maze test; format: functional, organism-based; conditions: time 9.0 day
Mus musculus [3] = assay: Cognitive enhancing effect in mouse model of scopolamine-induced amnesia assessed as decrease in escape latency at 10 mg/kg/day, po measured by Morris water maze test; format: functional, organism-based
Mus musculus [4] = assay: Improvement in learning and spatial memory in amyloid beta (1 to 42)-induced mouse model of Alzheimer's disease at 10 mg/kg/day, po pretreated with amyloid beta42 for 3 days followed by treatment with compound and measured after 9 days measured by Y-maze test; format: functional, organism-based; conditions: time 9.0 day
Acetylcholinesterase [5] = target: Acetylcholinesterase (Electrophorus electricus, UniProt O42275); assay: Inhibition of electric eel recombinant AChE preincubated for 1 min in presence of DNTB followed by addition of acetylthiocholine iodide substrate and measured after 20 mins by Ellman's method
Acetylcholinesterase [6] = target: Acetylcholinesterase (Homo sapiens, UniProt P22303); assay: Inhibition of human recombinant AChE preincubated for 1 min in presence of DNTB followed by addition of acetylthiocholine iodide substrate and measured after 20 mins by Ellman's method
HT-22 = assay: Neuroprotective activity in mouse HT-22 cells assessed as glutamate-induced cell mortality at 6 uM preincubated for 1 hr followed by addition of glutamate and measured after 24 hrs (reference value: 58%); format: functional; conditions: time 25 hrs
[7] = Drug level in ICR mouse brain at 10 mg/kg, po measured after 1 hr by LC/MS/MS analysis; format: ADME, organism-based; conditions: read-out: Ct
[8] = Drug level in ICR mouse plasma at 10 mg/kg, po measured after 1 hr by LC/MS/MS analysis; format: ADME, organism-based
[9] = AUC (0 to infinity) in Sprague-Dawley rat at 1 mg/kg, iv measured up to 24 hrs by LC-MS/MS analysis; format: ADME, organism-based; set-up: route intravenous, dose 1 mg/kg, time <=24; conditions: in vivo
[10] = target: T1, Acetylcholinesterase (Mus musculus) (UniProt P21836); conditions: ICR, dose 10.0 mg/kg, time 1.5 hrs
T1 sequence (whole entry): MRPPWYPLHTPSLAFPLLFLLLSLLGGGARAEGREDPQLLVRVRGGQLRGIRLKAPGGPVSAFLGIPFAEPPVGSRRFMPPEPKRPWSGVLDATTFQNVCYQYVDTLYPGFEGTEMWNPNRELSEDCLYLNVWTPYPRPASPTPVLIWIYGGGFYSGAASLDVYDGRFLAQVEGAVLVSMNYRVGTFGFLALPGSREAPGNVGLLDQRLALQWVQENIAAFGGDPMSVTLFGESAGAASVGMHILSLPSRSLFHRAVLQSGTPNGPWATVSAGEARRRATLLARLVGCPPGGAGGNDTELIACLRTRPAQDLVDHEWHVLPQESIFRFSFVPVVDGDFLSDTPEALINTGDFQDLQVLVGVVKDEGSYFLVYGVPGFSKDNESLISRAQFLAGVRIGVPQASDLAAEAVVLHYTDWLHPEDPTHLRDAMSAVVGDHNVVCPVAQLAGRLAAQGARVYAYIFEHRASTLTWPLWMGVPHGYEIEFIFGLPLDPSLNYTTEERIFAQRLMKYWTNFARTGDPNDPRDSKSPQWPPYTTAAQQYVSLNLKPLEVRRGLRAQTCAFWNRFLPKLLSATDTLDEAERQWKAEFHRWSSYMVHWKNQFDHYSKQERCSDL

[11] = target: T1, Acetylcholinesterase (Mus musculus); conditions: ICR, dose 10.0 mg/kg, time 1.5 hrs; remark: listed apart in the source
[12] = Drug level in ICR mouse plasma at 10 mg/kg, po measured after 1.5 hrs by LC/MS/MS analysis; format: ADME, organism-based
[13] = Cmax in Sprague-Dawley rat at 1 mg/kg, iv measured up to 24 hrs by LC-MS/MS analysis; format: ADME, organism-based; set-up: route intravenous, dose 1 mg/kg, time <=24; conditions: in vivo
[14] = MRT (0 to infinity) in Sprague-Dawley rat at 10 mg/kg, po measured up to 24 hrs by LC-MS/MS analysis; format: ADME, organism-based; conditions: in vivo
[15] = Drug level in ICR mouse brain at 10 mg/kg, po measured after 1.5 hrs by LC/MS/MS analysis; format: ADME, organism-based; conditions: read-out: Ct
[16] = Half life in Sprague-Dawley rat at 10 mg/kg, po measured up to 24 hrs by LC-MS/MS analysis; format: ADME, organism-based; conditions: in vivo
[17] = Half life in Sprague-Dawley rat at 1 mg/kg, iv measured up to 24 hrs by LC-MS/MS analysis; format: ADME, organism-based; conditions: in vivo
[18] = Effective permeability of the compound by PAMPA-BBB assay; format: ADME; conditions: read-out: Peff
[19] = Oral bioavailability in Sprague-Dawley rat at 10 mg/kg measured up to 24 hrs by LC-MS/MS analysis; format: ADME, organism-based; conditions: in vivo
[20] = Tmax in Sprague-Dawley rat at 10 mg/kg, po measured up to 24 hrs by LC-MS/MS analysis; format: ADME, organism-based; conditions: in vivo
[21] = AUC (0 to infinity) in Sprague-Dawley rat at 10 mg/kg, po measured up to 24 hrs by LC-MS/MS analysis; format: ADME, organism-based; set-up: route oral, dose 10 mg/kg, time <=24; conditions: in vivo
[22] = Ratio of drug level in brain to plasma of ICR mouse at 10 mg/kg, po measured after 1.5 hrs by LC/MS/MS analysis; format: ADME, organism-based; conditions: brain and plasma
[23] = Cmax in Sprague-Dawley rat at 10 mg/kg, po measured up to 24 hrs by LC-MS/MS analysis; format: ADME, organism-based; set-up: route oral, dose 10 mg/kg, time <=24; conditions: in vivo
[24] = Ratio of drug level in brain to plasma of ICR mouse at 10 mg/kg, po measured after 1 hr by LC/MS/MS analysis; format: ADME, organism-based; conditions: brain and plasma
[25] = MRT (0 to infinity) in Sprague-Dawley rat at 1 mg/kg, iv measured up to 24 hrs by LC-MS/MS analysis; format: ADME, organism-based; conditions: in vivo

Chain of Acetylcholinesterase (Electrophorus electricus, UniProt O42275) (O42275 whole entry): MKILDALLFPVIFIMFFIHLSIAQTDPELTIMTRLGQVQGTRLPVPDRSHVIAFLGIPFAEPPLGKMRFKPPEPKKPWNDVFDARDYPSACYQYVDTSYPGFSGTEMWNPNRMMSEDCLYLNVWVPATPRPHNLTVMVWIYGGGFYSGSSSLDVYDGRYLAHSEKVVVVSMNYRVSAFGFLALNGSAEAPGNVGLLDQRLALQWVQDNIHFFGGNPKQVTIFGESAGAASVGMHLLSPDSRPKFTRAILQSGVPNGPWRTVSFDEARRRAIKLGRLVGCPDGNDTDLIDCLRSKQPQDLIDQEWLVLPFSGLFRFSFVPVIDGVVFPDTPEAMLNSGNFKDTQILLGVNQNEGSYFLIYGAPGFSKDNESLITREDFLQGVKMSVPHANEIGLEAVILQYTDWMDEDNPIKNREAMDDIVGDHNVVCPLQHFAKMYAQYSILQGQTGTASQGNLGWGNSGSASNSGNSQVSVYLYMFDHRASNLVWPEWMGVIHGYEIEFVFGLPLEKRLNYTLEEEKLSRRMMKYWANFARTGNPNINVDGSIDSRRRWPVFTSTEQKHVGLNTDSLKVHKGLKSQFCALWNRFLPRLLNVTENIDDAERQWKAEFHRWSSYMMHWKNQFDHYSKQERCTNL
Chain of Acetylcholinesterase (Homo sapiens, UniProt P22303) (P22303 whole entry): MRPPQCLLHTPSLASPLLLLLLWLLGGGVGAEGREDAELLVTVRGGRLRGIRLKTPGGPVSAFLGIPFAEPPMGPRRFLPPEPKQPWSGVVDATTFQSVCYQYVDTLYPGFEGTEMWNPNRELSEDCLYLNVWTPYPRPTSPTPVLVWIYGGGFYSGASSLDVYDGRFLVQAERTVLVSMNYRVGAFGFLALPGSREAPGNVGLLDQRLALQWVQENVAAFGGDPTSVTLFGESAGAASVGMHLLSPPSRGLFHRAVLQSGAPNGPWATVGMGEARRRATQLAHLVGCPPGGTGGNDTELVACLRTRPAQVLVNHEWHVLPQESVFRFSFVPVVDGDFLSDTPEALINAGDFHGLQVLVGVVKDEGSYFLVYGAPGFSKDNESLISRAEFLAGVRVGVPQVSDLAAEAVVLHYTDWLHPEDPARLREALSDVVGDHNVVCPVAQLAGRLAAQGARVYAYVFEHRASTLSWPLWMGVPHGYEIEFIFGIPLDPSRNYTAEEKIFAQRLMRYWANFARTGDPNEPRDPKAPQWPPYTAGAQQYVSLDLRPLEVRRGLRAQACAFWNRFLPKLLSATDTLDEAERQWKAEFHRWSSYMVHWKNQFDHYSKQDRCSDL
Chain of Glycogen synthase kinase-3 beta (P49841 whole entry): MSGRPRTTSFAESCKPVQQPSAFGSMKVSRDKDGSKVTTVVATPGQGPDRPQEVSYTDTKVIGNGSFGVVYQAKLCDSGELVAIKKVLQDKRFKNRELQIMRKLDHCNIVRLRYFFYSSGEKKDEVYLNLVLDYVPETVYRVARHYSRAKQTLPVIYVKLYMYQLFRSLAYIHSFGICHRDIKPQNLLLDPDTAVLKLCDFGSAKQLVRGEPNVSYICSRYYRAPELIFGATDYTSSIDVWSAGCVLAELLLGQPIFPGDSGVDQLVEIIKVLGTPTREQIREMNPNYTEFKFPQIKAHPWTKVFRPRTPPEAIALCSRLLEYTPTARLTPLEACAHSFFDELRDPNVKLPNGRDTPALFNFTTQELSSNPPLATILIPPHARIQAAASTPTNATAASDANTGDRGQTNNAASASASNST

IC50 [1]: > 10 µM
SMILES: COc1cc2c(cc1OC)C(=O)C(CC1CCN(Cc3ccccc3)CC1)C2 (centres undefined) [DONEPEZIL]
Activity (Mus musculus [2]): Active
Activity (Mus musculus [3]): Active
Activity (Mus musculus [4]): Active

SMILES: O=C(NCC1CCN(Cc2ccccc2)CC1)c1cncc(NC(=O)c2ccnc(NC(=O)C3CC3)c2)c1
IC50 (Acetylcholinesterase [5]): 1.1 µM
IC50 [1]: 0.305 µM
IC50 (Acetylcholinesterase [6]): 1.1 µM

SMILES: O=C(Nc1cccc(OCC2CCN(Cc3ccccc3)CC2)c1)c1ccnc(NC(=O)C2CC2)c1
IC50 (Acetylcholinesterase [5]): 0.843 µM
IC50 [1]: 9.75 µM
IC50 (Acetylcholinesterase [6]): 1.39 µM

SMILES: O=C(Nc1cncc(OC2CCN(Cc3ccccc3)CC2)c1)c1ccnc(NC(=O)C2CC2)c1
IC50 (Acetylcholinesterase [5]): 9.81 µM
IC50 [1]: 0.734 µM
IC50 (Acetylcholinesterase [6]): > 10 µM

SMILES: CC(=O)Nc1cc(C(=O)Nc2cncc(OCC3CCN(Cc4ccc(F)cc4)CC3)c2)ccn1
IC50 (Acetylcholinesterase [5]): 0.016 µM
IC50 [1]: 3.51 µM
IC50 (Acetylcholinesterase [6]): 0.009 µM

SMILES: Cc1cccc(CN2CCC(CNC(=O)c3cncc(NC(=O)c4ccnc(NC(=O)C5CC5)c4)c3)CC2)c1
IC50 (Acetylcholinesterase [5]): 4.16 µM
IC50 [1]: 0.198 µM
IC50 (Acetylcholinesterase [6]): 6360 µM

SMILES: O=C(Nc1cncc(OCC2CCN(Cc3ccccc3)CC2)c1)c1ccnc(NC(=O)C2CC2)c1
IC50 (Acetylcholinesterase [5]): 0.0016 µM
Activity (HT-22): 66%
concentration at 1 h [7]: 34.4 ng/g
concentration at 1 h [8]: 112 ng/g
AUC(0-inf) [9]: 152 ng·h/mL
inhibition [10]: 73.1%
inhibition [11]: 48.3%
concentration at 1.5 h [12]: 62.9 ng/g
Cmax [13]: 98.3 ng/mL
MRT inf [14]: 8.9 h
concentration at 1.5 h [15]: 43.7 ng/g
half-life [16]: 6.3 h
IC50 [1]: 0.023 µM
Activity (Mus musculus [3]): Active
half-life [17]: 21.4 h
IC50 (Acetylcholinesterase [6]): 0.0026 µM
Papp [18]: 8.2 ×10⁻⁶ cm/s
bioavailability [19]: 24.8%
Tmax [20]: 1.7 h
AUC(0-inf) [21]: 377 ng·h/mL
Kp at 1.5 h [22]: 0.695
Cmax [23]: 47.1 ng/mL
Kp at 1 h [24]: 0.306
MRT inf [25]: 10 h

SMILES: O=C(NC1CCN(Cc2ccc(F)cc2)CC1)c1cncc(NC(=O)c2ccnc3[nH]ccc23)c1
IC50 (Acetylcholinesterase [5]): 0.406 µM
IC50 [1]: 4.93 µM
IC50 (Acetylcholinesterase [6]): 0.227 µM

SMILES: O=C(NC1CCN(Cc2ccccc2)CC1)c1cncc(NC(=O)c2ccnc3[nH]ccc23)c1
IC50 (Acetylcholinesterase [5]): 0.311 µM
IC50 [1]: 6.8 µM
IC50 (Acetylcholinesterase [6]): 0.358 µM

SMILES: O=C(Nc1cccc(OCC2CCN(Cc3ccc(F)cc3)CC2)c1)c1ccnc(NC(=O)C2CC2)c1
IC50 (Acetylcholinesterase [5]): > 10 µM
IC50 [1]: > 10 µM

SMILES: O=C(NCC1CCN(Cc2cccc(Cl)c2)CC1)c1cncc(NC(=O)c2ccnc3[nH]ccc23)c1
IC50 (Acetylcholinesterase [5]): 0.874 µM
IC50 [1]: > 10 µM
IC50 (Acetylcholinesterase [6]): 1.31 µM

SMILES: O=C(NCC1CCN(Cc2ccccc2F)CC1)c1n[nH]c2ccc(-c3cccnc3)cc12
IC50 (Acetylcholinesterase [5]): 0.718 µM
IC50 [1]: 0.079 µM
IC50 (Acetylcholinesterase [6]): 2.18 µM

SMILES: O=C(CC1CCN(Cc2ccccc2)CC1)Nc1n[nH]c2cc(-c3cccnc3)ccc12
IC50 (Acetylcholinesterase [5]): 0.264 µM
IC50 [1]: > 10 µM
IC50 (Acetylcholinesterase [6]): 0.509 µM

SMILES: CC(=O)Nc1cc(C(=O)Nc2cccc(OCC3CCN(Cc4ccccc4)CC3)c2)ccn1
IC50 (Acetylcholinesterase [5]): 2.2 µM
IC50 [1]: > 10 µM
IC50 (Acetylcholinesterase [6]): > 10 µM

SMILES: O=C(NCC1CCN(Cc2cccc(Cl)c2)CC1)c1cncc(NC(=O)c2ccnc(NC(=O)C3CC3)c2)c1
IC50 (Acetylcholinesterase [5]): 0.678 µM
IC50 [1]: 0.231 µM
IC50 (Acetylcholinesterase [6]): 1.09 µM

SMILES: O=C(Nc1cncc(C(=O)NC2CCN(Cc3ccccc3)CC2)c1)c1ccnc(NC(=O)C2CC2)c1
IC50 (Acetylcholinesterase [5]): 0.704 µM
IC50 [1]: 0.081 µM
IC50 (Acetylcholinesterase [6]): 0.622 µM
